Source: patent US4937371A, “Dihydroxynaphthalene derivatives” (Hoffmann-La Roche Inc., priority 1989, dated 1990)
pIC50: −log10 of the molar value.

Tests used:
[1] = test system: Myeloperoxidase accumulation (rat acetic acid colitis model); test: Acetic acid-induced colitis in rats, in vivo; set-up: species or system rat (Sprague-Dawley)
From the text: Acetic Acid-Induced Colitis in Rats, In Vivo
The rat acetic acid-induced colitis bioassay has been described by J. E. Krawisz, et al. in Amer. J. Proc. Gastro. Col. Rec. Surg. 31: 11-18 (1980), and by P. Sharon and W. F. Stenson in Gastroenterolgy 88: 55-63 (1985) and 86:453-460 (1984). Acetic acid-induced colitis is characterized by the movement of inflammatory cells into the colon, with the number of such cells in the mucosa being measured by the activity of myeloperoxidase, a marker enzyme for these cells. Positive desirable activity is indicated by a reduction in the high levels of myeloperoxidase caused by acetic acid. Male rats (Sprague-Dawley), weighing 150 to 300 g, were pretreated twice daily for two days with either the vehicle (water, or dimethylsulfoxide) or the test inhibitor compound suspended in water or dissolved in dimethylsulfoxide and orally administered. On the third day, the animals were dosed the same as on the previous two days, anesthetized with metofane, and 2 ml of 2.5% acetic acid was injected by syringe into the colonic lumen, followed immediately by 3 ml of air and a rinse consisting of 3 ml of phosphate-buffered saline (the acetic acid is Present in the lumen for a sufficient period to cause inflammation without producing severe necrosis or irreversible damage). The animals were administered a second dose of the test compound in the same amount about 16 hours later. Twenty four hours after the acetic acid treatment, the animals were sacrificed, the colonic mucosa was surgically removed and homogenized in an aqueous buffer at pH 6 with a Tissumizer or similar device, and myeloperoxidase was measured in the homogenate using o-phenylenediamine as a chromagen, as described by A. Voller, D. E. Bidwell and A. Bartlett in The Enzyme Linked Immunosorbent Assay (ELISA), Zoological Soc., London, 1979, pages 29-30. Control animals were pretreated with the vehicle and saline in place of acetic acid.

[2] = molecular target: T1, Δ^5 -lipoxygenase from rat basophilic leukemia (RBL-1) cells (Rattus norvegicus, UniProt P12527); test: In vitro test for Δ^5-lipoxygenase inhibitors (RBL-1 cell supernatant); type: biochemical; settings: Δ^5-lipoxygenase from RBL-1 cells; 10 min preincubation at 30° C.; 6.7 μM arachidonic acid; 37° C.; pH 7.2
T1 construct: The Δ^5 -lipoxygenase was derived from the supernatant fraction of lysed RBL-1 cells; endogenous in cells; host or cells: RBL-1 (rat basophilic leukemia) cells, 49,000 g supernatant of the homogenate
T1 sequence (P12527 1-673): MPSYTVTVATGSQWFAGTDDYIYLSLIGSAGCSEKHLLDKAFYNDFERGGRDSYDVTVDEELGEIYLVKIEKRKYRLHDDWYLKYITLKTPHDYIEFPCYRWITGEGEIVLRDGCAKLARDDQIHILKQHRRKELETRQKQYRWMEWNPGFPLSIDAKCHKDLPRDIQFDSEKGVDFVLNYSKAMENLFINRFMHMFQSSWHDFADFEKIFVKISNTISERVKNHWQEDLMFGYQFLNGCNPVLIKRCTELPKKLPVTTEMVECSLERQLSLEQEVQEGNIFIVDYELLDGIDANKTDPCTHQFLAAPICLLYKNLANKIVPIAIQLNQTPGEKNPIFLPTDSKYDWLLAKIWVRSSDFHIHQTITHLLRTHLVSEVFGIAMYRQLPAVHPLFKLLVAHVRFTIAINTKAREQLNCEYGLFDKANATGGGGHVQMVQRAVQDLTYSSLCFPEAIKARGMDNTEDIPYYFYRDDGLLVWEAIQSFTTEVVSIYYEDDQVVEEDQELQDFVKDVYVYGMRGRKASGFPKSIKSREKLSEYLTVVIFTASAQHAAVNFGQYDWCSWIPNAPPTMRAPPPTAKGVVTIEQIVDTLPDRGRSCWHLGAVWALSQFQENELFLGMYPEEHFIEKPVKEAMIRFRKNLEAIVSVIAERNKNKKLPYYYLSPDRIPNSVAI
Description: IN VITRO TEST FOR Δ^5 -LIPOXYGENASE INHIBITORS
Compounds of formula I of the invention were tested for their effect on Δ^5 -lipoxygenase from rat basophilic leukemia (RBL-1) cells. The activity of this enzyme was determined by measuring the catalytic conversion of [1-^14 C]arachidonic acid to [1-^14 C-5-hydroperoxy- 6,8,11,14-eicosatetraenoic acid ([1-^14 C]-5-HPETE) which leads to the formation of the 5-hydroxy derivative ([1-^14 C]-5-HETE). The Δ^5 -lipoxygenase was derived from the supernatant fraction of lysed RBL-1 cells using a modification of the method previously described by Jakschik and Lee [Nature 287:51 (1980)]. Briefly, RBL-1 cells were lysed by homogenization in ice-cold buffer (50 mM Tris-HCl buffer, pH 7.2, containing 1 mM EDTA and 14 μM indomethacin). The homogenate was centrifuged at 4° C. and 49,000 g for 20 minutes and the resulting supernatant fraction was used as the source of Δ^5 -lipoxygenase. […] The ethereal extract containing [1-^14 C]-5-HETE and unreacted substrate analyzed by silica gel TLC using isooctane-methylethyl ketone acetic acid (100:9:1) as the developing solvent. […] The effect of inhibitors on Δ^5 -lipoxygenase activity was determined by preincubating the enzyme for 10 minutes at 30° C. in the presence or absence of various concentrations of the drug prior to addition of substrate. […]

[3] = test system: LTB4 formation (Δ^5 -lipoxygenase (5-LO) pathway); test: Rat peritoneal macrophage assay, in vitro: LTB4 formation; type: cell-based; settings: 0.5 h, rat peritoneal macrophages, 30 min incubation, A 23187-stimulated
From the text: (§1) RAT PERITONEAL MACROPHAGE ASSAY, IN VITRO
(§2) The rat peritoneal macrophage assay measures the ability of a test compound to influence the release of arachidonic acid (AA) from phospholipid stores in the plasma membrane and the subsequent metabolism of AA by the Δ^5 -lipoxygenase (5-LO) and cyclooxygenase (CO) pathways to the final products excreted by the cells: leukotriene B4 (LTB4, from the 5-LO pathway) and prostaglandin E2 (PGE2, from the CO Pathway).
(§3) Macrophages were obtained from rats by peritoneal lavage with phosphate buffered saline minus Ca^+2 and Mg^+2 (PBS). Cells were washed 3 times with PBS and resuspended in Delbecco's Modified Eagle medium (Gibco Laboratories) containing L-glutamine and D-glucose and supplemented with 10% fetal calf serum. Cells were counted on a Coulter ZBA cell counter and then resuspended to a concentration of 4×10^6 cells/mL. […] The extracellular fluid was removed and ^14 C radioactivity released into this fluid from AA metabolism was measured by liquid scintillation spectroscopy. The amounts of LTB4 and PGE2 were measured in the extracellular fluid by radioimmunoassay with specific antisera. […]
(§4) This assay measures inhibition by the test compounds of the 5-LO and the CO pathways of AA metabolism and this inhibition is expressed as an IC50 for LTB4 and PGE2 formation, respectively.

[4] = test system: PGE2 formation (cyclooxygenase (CO) pathway); test: Rat peritoneal macrophage assay, in vitro: PGE2 formation; type: cell-based; settings: 0.5 h, rat peritoneal macrophages, 30 min incubation, A 23187-stimulated
From the text: as §1, §2, §3, §4

Row | SMILES | % Inhibition of Myeloperoxidase Accumulation ([1]; 10 mg/kg p.o.) [%] | % Inhibition of Myeloperoxidase Accumulation ([1]; 1 mg/kg p.o.) [%] | further results
1 | CCCc1c(OCCc2ccc3cc(O)c(O)cc3c2)ccc(C(=O)O)c1O [4-[2-(6,7-Dihydroxy-2-naphthalenyl)ethoxy]-2-hydroxy-3-propylbenzoic acid] | 60 ± 13 | – | –
2 | CCCc1c(OCCCc2ccc3cc(O)c(O)cc3c2)ccc(C(=O)O)c1O [4-[3-(6,7-Dihydroxy-2-naphthalenyl)propoxy]-2-hydroxy-3-propylbenzoic acid] | – | 21 ± 4 | –
3 | CCCc1c(OCCCCc2ccc3c(Cl)c(O)c(O)c(Cl)c3c2)ccc(C(=O)O)c1O [4-[4-(5,8-Dichloro-6,7-dihydroxy-2-naphthalenyl)butoxy]-2-hydroxy-3-propylbenzoic acid] | 71 ± 7 | – | –
4 | CCCc1c(OCCCCc2ccc3cc(O)c(O)cc3c2)ccc(C(=O)O)c1O [4-[4-(6,7-Dihydroxy-2-naphthalenyl)butoxy]-2-hydroxy-3-propylbenzoic acid] | – | – | pIC50 [2]: 8.33; pIC50 [3]: 5.52; pIC50 [4]: 5.70; % Inhibition of Myeloperoxidase Accumulation ([1]; 3 mg/kg p.o.): 82 ± 8%
5 | CCCc1c(OCCCCCc2ccc3cc(O)c(O)cc3c2)ccc(C(=O)O)c1O [4-[5-(6,7-Dihydroxy-2-naphthalenyl)pentyloxy]-2-hydroxy-3-propylbenzoic acid] | 56 ± 11 | – | –
6 | O=C(O)c1ccc(OCCCCCCc2ccc3cc(O)c(O)cc3c2)cc1O [4-[6-(6,7-Dihydroxy-2-naphthalenyl)hexyloxy]-2-hydroxybenzoic acid] | – | 65 ± 9 | –
7 | O=C(O)c1ccc(OCCCCCCc2ccc3cc(O)c(O)cc3c2)cc1 [4-[6-(6,7-Dihydroxy-2-naphthalenyl)hexyloxy]benzoic acid] | 68 ± 13 | – | –
8 | CCCc1c(OCCCCCCc2ccc3cc(O)c(O)cc3c2)ccc(C(=O)O)c1O [4-[6-(6,7-dihydroxy-2-naphthalenyl)hexyloxy]-2-hydroxy-3-propylbenzoic acid] | – | 46 ± 12 | –
9 | CCCc1c(OCCCCC(=O)c2ccc3cc(O)c(O)cc3c2)ccc(C(=O)O)c1O [4-[[5-(6,7-Dihydroxy-2-naphthalenyl)-5-oxopentyl]oxy]-2-hydroxy-3-propylbenzoic acid] | – | – | % Inhibition of Myeloperoxidase Accumulation ([1]; 30 mg/kg p.o.): 80 ± 18%
10 | CCCc1c(OCCCCCC(=O)c2ccc3cc(O)c(O)cc3c2)ccc(C(=O)O)c1O [4-[[6-(6,7-dihydroxy-2-naphthalenyl)-6-oxohexyl]oxy]-2-hydroxy-3-propylbenzoic acid] | – | – | pIC50 [3]: 5.52; pIC50 [4]: 5.70
